In brackets after ≈: the same amount, converted by molar mass.
How the values were obtained:
Proteus morganii (Pg-1) = experiment: MIC, two-fold agar dilution; format: cell-based; conditions: Morganella morganii, 18 h, Table 3; Mueller-Hinton agar, 10^-4 dilution
Protocol: (§1) The minimum inhibitory concentrations (MIC) of Bu-2349A and B were determined against a wide variety of bacteria by the two-fold agar dilution method. Mueller-Hinton agar medium was generally used for the determination of bacterial MIC except for species of Streptococcus, Neisseria and Hemophilus for which Gonococcus agar medium (GC agar, Nissui Co., Tokyo) was used. Gifu anaerobe agar medium (GAM agar, Eiken Co., Tokyo) was used for anaerobic bacteria. The MIC's were determined after overnight incubation at 37° C. with an initial inoculum equivalent to a 10^-4 dilution of an 18-hour culture for the aerobic and anaerobic bacteria, except for Streptococcus, Neisseria and Hemophilus for which a 10^-2 dilution was used.
(§2) The influence of inoculum size on MIC was tested on Mueller-Hinton agar using an inoculum of […], 10^-2 or 10^-4 dilution of the overnight culture of test organisms.
(§3) The effect of media pH on the MIC's of Bu-2349A was determined at three pH levels (6, 7 and 8) using Mueller-Hinton agar.
(§4) The media effect on the MIC's of Bu-2349A was tested using four kinds of assay media: Mueller-Hinton agar (MHA), nutrient agar (NA), heart infusion agar (HIA) and brain heart infusion agar (BHIA). The pH was adjusted at 7 and a 10^-4 dilution of overnight culture was used for the inoculum.

[1] = tested on: Escherichia coli ML-1630 (Ec-5), APH(3')-1; experiment: MIC, two-fold agar dilution; format: cell-based; conditions: 18 h, Table 3, Mueller-Hinton agar, 10^-4 dilution, enzyme APH(3')-1
Protocol: as §1, §2, §3, §4

[2] = tested on: Klebsiella pneumoniae (Kp-2); experiment: MIC, two-fold agar dilution; format: cell-based; conditions: 18 h, Table 3, Mueller-Hinton agar, 10^-4 dilution, read-out: MIC
Protocol: as §1, §2, §3, §4

[3] = tested on: Escherichia coli Juhl (Ec-3); experiment: MIC, two-fold agar dilution; format: cell-based; conditions: 18 h, Table 3, Mueller-Hinton agar, 10^-4 dilution
Protocol: as §1, §2, §3, §4

[4] = tested on: Staphylococcus aureus 209P (Sa-1); experiment: MIC, two-fold agar dilution; format: cell-based; conditions: 18 h, Table 3, Mueller-Hinton agar, 10^-4 dilution
Protocol: as §1, §2, §3, §4

[5] = tested on: Pseudomonas aeruginosa (Pa-3); experiment: MIC, two-fold agar dilution; format: cell-based; conditions: 18 h, Table 3, Mueller-Hinton agar, 10^-4 dilution
Protocol: as §1, §2, §3, §4

Proteus mirabilis (Pm-1) = experiment: MIC, two-fold agar dilution; format: cell-based; conditions: Proteus mirabilis, 18 h, Table 3; Mueller-Hinton agar, 10^-4 dilution; read-out: MIC
Protocol: as §1, §2, §3, §4

[6] = tested on: Bacillus subtilis PCI 219 (Bs-1); experiment: MIC, two-fold agar dilution; format: cell-based; conditions: 18 h, Table 3, Mueller-Hinton agar, 10^-4 dilution
Protocol: as §1, §2, §3, §4

[7] = tested on: Streptococcus viridans (Sv-1); experiment: MIC, two-fold agar dilution; format: cell-based; conditions: 18 h, Table 3, GC agar, 10^-2 dilution
[8] = tested on: Mycobacterium ranae ATCC 110 (Mr-1); experiment: MIC, two-fold agar dilution; format: cell-based; conditions: ATCC110, 18 h, Table 3, Mueller-Hinton agar, 10^-4 dilution
[9] = tested on: Escherichia coli (Ec-72), ANT(2"); experiment: MIC, two-fold agar dilution; format: cell-based; conditions: 18 h, Table 3, Mueller-Hinton agar, 10^-4 dilution, enzyme ANT(2")
[10] = tested on: Staphylococcus aureus (Sa-77), ANT(4'); experiment: MIC, two-fold agar dilution; format: cell-based; conditions: 18 h
[11] = tested on: Escherichia coli NIHJ (Ec-1); experiment: MIC, two-fold agar dilution; format: cell-based; conditions: 18 h, Table 3, Mueller-Hinton agar, 10^-4 dilution
Proteus vulgaris (Pv-1) = experiment: MIC, two-fold agar dilution; format: cell-based; conditions: 18 h, Table 3, Mueller-Hinton agar, 10^-4 dilution
[12] = tested on: Neisseria meningitidis (Nm-1); experiment: MIC, two-fold agar dilution; format: cell-based; conditions: 18 h, Table 3, GC agar, 10^-2 dilution
[13] = tested on: Klebsiella pneumoniae (Kp-33), AAC(3)-3; experiment: MIC, two-fold agar dilution; format: cell-based; conditions: 18 h, Table 3, Mueller-Hinton agar, 10^-4 dilution, enzyme AAC(3)-3
[14] = tested on: Serratia marcescens (Sm-2); experiment: MIC, two-fold agar dilution; format: cell-based; conditions: 18 h, Table 3, Mueller-Hinton agar, 10^-4 dilution
[15] = tested on: Streptococcus pneumoniae (Dp-4); experiment: MIC, two-fold agar dilution; format: cell-based; conditions: 18 h, Table 3, GC agar, 10^-2 dilution
solubility = format: physicochemical; conditions: hydrochloride salt
[16] = tested on: Streptococcus pyogenes (Sp-3); experiment: MIC, two-fold agar dilution; format: cell-based; conditions: 18 h, Table 3, GC agar, 10^-2 dilution
Mycobacterium 607 (M6-1) = experiment: MIC, two-fold agar dilution; format: cell-based; conditions: 18 h, Table 3, Mueller-Hinton agar, 10^-4 dilution
[17] = tested on: Enterobacter cloacae (El-35), AAC(3)-3; experiment: MIC, two-fold agar dilution; format: cell-based; conditions: 18 h, Table 3, Mueller-Hinton agar, 10^-4 dilution, enzyme AAC(3)-3
[18] = tested on: Escherichia coli (Ec-49), APH(3')-2; experiment: MIC, two-fold agar dilution; format: cell-based; conditions: 18 h, Table 3, Mueller-Hinton agar, 10^-4 dilution, enzyme APH(3')-2
[19] = tested on: Staphylococcus aureus Terajima (Sa-33); experiment: MIC, two-fold agar dilution; format: cell-based; conditions: 18 h, Table 3, Mueller-Hinton agar, 10^-4 dilution
[20] = tested on: Escherichia coli (Ec-62), AAC(3)- 1; experiment: MIC, two-fold agar dilution; format: cell-based; conditions: 18 h, Table 3, Mueller-Hinton agar, 10^-4 dilution, enzyme AAC(3)- 1
[21] = tested on: Staphylococcus epidermidis (Si-2), ANT (4'); experiment: MIC, two-fold agar dilution; format: cell-based; conditions: 18 h, Table 3, Mueller-Hinton agar, 10^-4 dilution, enzyme ANT (4')
[22] = tested on: Proteus stuartii (Ps-2), AAC(2'); experiment: MIC, two-fold agar dilution; format: cell-based; conditions: 18 h; Table 3; Mueller-Hinton agar, 10^-4 dilution; enzyme AAC(2')
[23] = tested on: Neisseria gonorrhoeae (Ng-1); experiment: MIC, two-fold agar dilution; format: cell-based; conditions: 18 h, Table 3, GC agar, 10^-2 dilution
[24] = tested on: Staphylococcus aureus Smith (Sa-2); experiment: MIC, two-fold agar dilution; format: cell-based; conditions: 18 h, Table 3, Mueller-Hinton agar, 10^-4 dilution
[25] = tested on: Escherichia coli (Ec-9), AAC(6')-1; experiment: MIC, two-fold agar dilution; format: cell-based; conditions: 18 h, Table 3, Mueller-Hinton agar, 10^-4 dilution, enzyme AAC(6')-1
[26] = tested on: Hemophylus influenzae (He-2); experiment: MIC, two-fold agar dilution; format: cell-based; conditions: 18 h; Table 3; GC agar, 10^-2 dilution
Proteus rettgeri (Pr-2) = experiment: MIC, two-fold agar dilution; format: cell-based; conditions: Providencia rettgeri, 18 h; Table 3; Mueller-Hinton agar, 10^-4 dilution
[27] = tested on: Mycobacterium phlei D88 (Mp-1); experiment: MIC, two-fold agar dilution; format: cell-based; conditions: Mycolicibacterium phlei, 18 h; Table 3; Mueller-Hinton agar, 10^-4 dilution
[28] = tested on: gram-positive and gram-negative bacteria; experiment: in vitro antibacterial activity, overall statements; format: cell-based
Protocol: as §1, §2, §3, §4

Molecule `C=C1OC(OC2C(CO)OC(Oc3ccc(C(=O)NCCCNCCCCN)cc3)C2O)C(O)C(OC2OC(CO)C(OC3OC(C)C(N)C(O)C3NC(=O)C(C)N)C(O)C2O)C1O` (stereo not shown) [Bu-2349B] has an MIC (Proteus morganii (Pg-1)) of 100 µg/mL (≈ 109 µM), an MIC [1] of 6.3 µg/mL (≈ 6.86 µM) and an MIC [2] of 12.5 µg/mL (≈ 13.6 µM). The MIC [3] was 6.3 µg/mL (≈ 6.86 µM), the MIC [4] was 12.5 µg/mL (≈ 13.6 µM) and the MIC [5] was 100 µg/mL (≈ 109 µM). For the same molecule, the MIC (Proteus mirabilis (Pm-1)) was 25 µg/mL (≈ 27.2 µM), the MIC [6] was 25 µg/mL (≈ 27.2 µM) and the MIC [7] was over 100 µg/mL. For the same molecule, the MIC [8] was 25 µg/mL (≈ 27.2 µM), the MIC [9] was 6.3 µg/mL (≈ 6.86 µM) and the MIC [10] was 50 µg/mL (≈ 54.4 µM). The MIC [11] was 3.1 µg/mL (≈ 3.37 µM), the MIC (Proteus vulgaris (Pv-1)) was 6.3 µg/mL (≈ 6.86 µM) and the MIC [12] was over 100 µg/mL. The MIC [13] was 12.5 µg/mL (≈ 13.6 µM), the MIC [14] was 50 µg/mL (≈ 54.4 µM) and the MIC [15] was over 100 µg/mL. For the same molecule, the “solubility in methanol, ethanol, dimethylsulfoxide and dimethylformamide” value (solubility; methanol, ethanol, dimethylsulfoxide and dimethylformamide) was “slightly soluble”, the “solubility in other common organic solvents” value (solubility; other common organic solvents) was “practically insoluble” and the solubility in water (solubility; water) was “soluble”. For the same molecule, the MIC [16] was over 100 µg/mL, the MIC (Mycobacterium 607 (M6-1)) was 12.5 µg/mL (≈ 13.6 µM) and the MIC [17] was 12.5 µg/mL (≈ 13.6 µM). It also gave an MIC [18] of 3.1 µg/mL (≈ 3.37 µM), an MIC [19] of 6.3 µg/mL (≈ 6.86 µM) and an MIC [20] of 12.5 µg/mL (≈ 13.6 µM). For the same molecule, the MIC [21] was 25 µg/mL (≈ 27.2 µM), the MIC [22] was 1.6 µg/mL (≈ 1.74 µM) and the MIC [23] was over 100 µg/mL. For the same molecule, the MIC [24] was 12.5 µg/mL (≈ 13.6 µM), the MIC [25] was 0.8 µg/mL (≈ 0.871 µM) and the MIC [26] was over 100 µg/mL. For the same molecule, the MIC (Proteus rettgeri (Pr-2)) was 3.1 µg/mL (≈ 3.37 µM), the MIC [27] was 25 µg/mL (≈ 27.2 µM) and the “inhibitory activity both in vitro and in vivo” value ([28]; gram-positive and gram-negative bacteria, including aminoglycoside-resistant bacteria, summary statement) was “marked inhibitory activity”. The antibacterial activity ([28]; including bacteria which produce aminoglycoside-modifying enzymes) was “active”.

— patent US4250170A, “Antibacterial agents Bu-2349A and B and method of using same” (Bristol-Myers Company, priority 1979, dated 1981)
